Reference: patent EP0240392A1, “Compounds of the cyclophosphazene type, process for their preparation and pharmaceutical preparation containing them” (CENTRE NATIONAL DE LA RECHERCHE SCIENTIFIQUE (CNRS), priority 1986, dated 1987)
Marks after values point to notes of the source that are not given here.

Test system: CARCINOME DU POUMON DE LEWIS
Test: Antitumour activity on Lewis lung carcinoma implanted i.m. in mice
Assay type: in vivo, souris C57Bl/6
Details: 60 mg/kg i.p. x j 1,5,9
Excerpt: Les tests d'activité antitumorale ont été conduits au sein du Screening and Pharmacology Group de l'E.O.R.T.C., implanté à l'Institut Mario Negri de Milan.
Ces essais ont été conduits soit en mono-injection à différentes doses au jour J+1 suivant la greffe de la tumeur, soit en poly-injections chroniques Q1D, soit en protocoles Q4D.

## O=P1(N(CCCl)CCCl)NCCCO1 (stereo not shown) [CPA, Cyclophosphamide, reference compound]
Jour 17
  Volume de la tumeur (d^2.D/2)cm^3 ± S.E.: 0,57±0,16* cm^3
Jour 20
  Volume de la tumeur (d^2.D/2)cm^3 ± S.E.: 1,30±0,17* cm^3
Jour 24
  Volume de la tumeur (d^2.D/2)cm^3 ± S.E.: 3,03±0,25* cm^3
Sacrifice jour 25
  Poids moyen de la tumeur (g ± S.E.): 4,14 ± 0,27 g
